# Columns and labels:
# [1] = test system: soybean; assay: Test C pre-/postemergence herbicide test; format: in vivo, Glycine max; conditions: for Plant response rating (0 = no effect, 100 = complete control), Soybean / Plant response rating, Soybean: preemergence
# Procedure, shortened: (§1)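 Greenhouse-grown plants were evaluated visually 12 to 14 days after treatment, with 100 meaning complete control and 0 no effect. Application was preemergence, or postemergence at 2 to 18 cm.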
# [2] = test system: common ragweed; assay: Test C pre-/postemergence herbicide test; format: in vivo, Ambrosia elatior; design: key to Plant response rating, Ragweed: 0 = no effect, 100 = complete control; conditions: for Plant response rating (0 = no effect, 100 = complete control), Ragweed / Plant response rating, Ragweed: preemergence
# Procedure, shortened: as §1
# [3] = test system: large crabgrass; assay: Test C pre-/postemergence herbicide test; format: in vivo, Digitaria sanguinalis; conditions: for Plant response rating (0 = no effect, 100 = complete control), Crabgrass, Large / Plant response rating, Crabgrass, Large: preemergence
# Procedure, shortened: as §1
# [4] = test system: giant foxtail; assay: Test C pre-/postemergence herbicide test; format: in vivo, Setaria faberi; conditions: for Plant response rating (0 = no effect, 100 = complete control), Foxtail, Giant / Plant response rating, Foxtail, Giant: preemergence
# Procedure, shortened: as §1
# [5] = test system: pigweed; assay: Test C pre-/postemergence herbicide test; format: in vivo, Amaranthus retroflexus; conditions: for Plant response rating (0 = no effect, 100 = complete control), Pigweed / Plant response rating, Pigweed: preemergence
# Procedure, shortened: as §1
# [6] = test system: goosegrass; assay: Test C pre-/postemergence herbicide test; format: in vivo, Eleusine indica; conditions: for Plant response rating (0 = no effect, 100 = complete control), Goosegrass / Plant response rating, Goosegrass: preemergence
# Procedure, shortened: as §1
# [7] = test system: barnyardgrass; assay: Test C flooded paddy test; format: in vivo, Echinochloa crus-galli; conditions: for Plant response rating, Barnyardgrass: 500 g ai/ha, visual rating after 12 to 14 days
# Procedure, shortened: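 Visual rating, 0 (no effect) to 100 (complete control), vs. controls at 12–14 d in greenhouse. Postemergence: 1–4-leaf plants, 2–18 cm. Paddy: flooded, barnyardgrass at 2-leaf stage.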
# [8] = test system: ducksalad; assay: Test C flooded paddy test; format: in vivo, Heteranthera limosa; conditions: for Plant response rating, Ducksalad: 500 g ai/ha, visual rating after 12 to 14 days
# [9] = test system: velvetleaf; assay: Test C pre-/postemergence herbicide test; format: in vivo, Abutilon theophrasti; conditions: for Plant response rating, Velvetleaf / Plant response rating (0 = no effect, 100 = complete control), Velvetleaf: preemergence
# Procedure, shortened: as §1
# [10] = test system: yellow nutsedge; assay: Test C pre-/postemergence herbicide test; format: in vivo, Cyperus esculentus; conditions: for Plant response rating (0 = no effect, 100 = complete control), Nutsedge, Yellow / Plant response rating, Nutsedge, Yellow: preemergence
# Procedure, shortened: as §1
# [11] = Preemergence, 500 g ai/ha, scale 0 to 100, 0 no effect, 100 complete control
# [12] = 125 g ai/ha, scale 0 (no effect) to 100 (complete control), visual, 12 to 14 days
# [13] = 250 g ai/ha, scale 0 to 100 (0 no effect, 100 complete control), visual, 12 to 14 days
# [14] = 62 g ai/ha, scale 0 to 100 (0 no effect, 100 complete control)
# [15] = 250 g ai/ha, scale of 0 to 100, 0 is no effect, 100 is complete control
# [16] = scale 0 to 100 (0 no effect, 100 complete control)
# [17] = 125 g ai/ha, scale 0 to 100 (0 no effect, 100 complete control)
# [18] = 500 g ai/ha, scale 0 to 100 (0 no effect, 100 complete control), visual, 12 to 14 days
smiles,measurement,setting,value
CCn1nc(C(C)(C)C)cc1C(=O)Nc1cc(C#N)ccc1F [Compound 140],"Plant response rating (0 = no effect, 100 = complete control), Soybean",[1]; 62 g ai/ha,0
same,Soybean plant response rating,[1]; [11],0
same,"Plant response rating (0 = no effect, 100 = complete control), Ragweed",[2]; 62 g ai/ha,0
same,"Plant response rating, Ragweed",[2]; [12],0
same,Ragweed plant response rating,[2]; [11],95
same,"Plant response rating (0 = no effect, 100 = complete control), Crabgrass, Large",[3]; 62 g ai/ha,0
same,"Plant response rating, Crabgrass, Large",[3]; [12],65
same,"Plant response rating, Crabgrass, Large",[3]; [13],75
same,"Crabgrass, Large plant response rating",[3]; [11],100
same,"Plant response rating (0 = no effect, 100 = complete control), Foxtail, Giant",[4]; 62 g ai/ha,0
same,"Plant response rating, Foxtail, Giant",[4]; [12],25
same,"Plant response rating, Foxtail, Giant",[4]; [13],65
same,"Foxtail, Giant plant response rating",[4]; [11],85
same,"Plant response rating (0 = no effect, 100 = complete control), Pigweed",[5]; 62 g ai/ha,100
same,"Plant response rating, Pigweed",[5]; [12],100
same,Pigweed plant response rating,[5]; [11],100
same,"Plant response rating (0 = no effect, 100 = complete control), Goosegrass",[6]; 62 g ai/ha,0
same,"Plant response rating, Goosegrass",[6]; [12],0
same,Goosegrass plant response rating,[6]; [11],75
same,Barnyardgrass plant response rating,[7]; [14],0
same,Barnyardgrass plant response rating,"[7]; 125 g ai/ha, scale of 0 to 100, 0 is no effect, 100 is complete control",0
same,Barnyardgrass plant response rating,[7]; [15],0
same,"Plant response rating, Barnyardgrass",[7]; [16],15
same,Ducksalad plant response rating,[8]; [14],0
same,Ducksalad plant response rating,[8]; [17],0
same,Ducksalad plant response rating,[8]; [15],0
same,"Plant response rating, Ducksalad",[8]; [16],20
same,"Plant response rating, Velvetleaf",[9]; [12],0
same,Velvetleaf plant response rating,[9]; [11],20
same,"Plant response rating (0 = no effect, 100 = complete control), Nutsedge, Yellow",[10]; 62 g ai/ha,0
same,"Plant response rating, Nutsedge, Yellow",[10]; [12],0
same,"Nutsedge, Yellow plant response rating",[10]; [11],0
CCc1nn(C(C)(C)CC)nc1C(=O)Nc1cccc(C(=O)N(C)C)c1 [Compound 372],"Plant response rating, Soybean","[1]; 62 g ai/ha, scale 0 to 100",0
same,"Plant response rating (0 = no effect, 100 = complete control), Soybean",[1]; 125 g ai/ha,5
same,"Plant response rating, Soybean","[1]; 250 g ai/ha, scale 0-100",20
same,"Plant response rating, Soybean",[1]; [18],90
same,"Plant response rating, Ragweed","[2]; 62 g ai/ha, scale 0 to 100",70
same,"Plant response rating (0 = no effect, 100 = complete control), Ragweed",[2]; 125 g ai/ha,90
same,"Plant response rating, Ragweed","[2]; 250 g ai/ha, scale 0-100",100
same,"Plant response rating, Ragweed",[2]; [18],100
same,"Plant response rating, Crabgrass, Large","[3]; 62 g ai/ha, scale 0 to 100",70
same,"Plant response rating (0 = no effect, 100 = complete control), Crabgrass, Large",[3]; 125 g ai/ha,85
same,"Plant response rating, Crabgrass, Large","[3]; 250 g ai/ha, scale 0-100",95
same,"Plant response rating, Crabgrass, Large",[3]; [18],95
same,"Plant response rating, Foxtail, Giant","[4]; 62 g ai/ha, scale 0 to 100",70
same,"Plant response rating (0 = no effect, 100 = complete control), Foxtail, Giant",[4]; 125 g ai/ha,85
same,"Plant response rating, Foxtail, Giant","[4]; 250 g ai/ha, scale 0-100",90
same,"Plant response rating, Foxtail, Giant",[4]; [18],90
same,"Plant response rating, Pigweed","[5]; 62 g ai/ha, scale 0 to 100",85
same,"Plant response rating (0 = no effect, 100 = complete control), Pigweed",[5]; 125 g ai/ha,95
same,"Plant response rating, Pigweed","[5]; 250 g ai/ha, scale 0-100",100
same,"Plant response rating, Pigweed",[5]; [18],100
same,"Plant response rating, Goosegrass","[6]; 62 g ai/ha, scale 0 to 100",70
same,"Plant response rating (0 = no effect, 100 = complete control), Goosegrass",[6]; 125 g ai/ha,80
same,"Plant response rating, Goosegrass","[6]; 250 g ai/ha, scale 0-100",90
same,"Plant response rating, Goosegrass",[6]; [18],90
same,Barnyardgrass plant response rating,[7]; [14],65
same,Barnyardgrass plant response rating,[7]; [17],70
same,Barnyardgrass plant response rating,[7]; [15],75
same,"Plant response rating, Barnyardgrass",[7]; [16],80
same,Ducksalad plant response rating,"[8]; 62 g ai/ha, scale 0 to 100",65
same,Ducksalad plant response rating,[8]; [17],85
same,Ducksalad plant response rating,[8]; [15],85
same,"Plant response rating, Ducksalad",[8]; [16],85
same,"Plant response rating, Velvetleaf","[9]; 62 g ai/ha, scale 0 to 100",50
same,"Plant response rating (0 = no effect, 100 = complete control), Velvetleaf",[9]; 125 g ai/ha,100
same,"Plant response rating, Velvetleaf","[9]; 250 g ai/ha, scale 0-100",100
same,"Plant response rating, Velvetleaf",[9]; [18],100
same,"Plant response rating, Nutsedge, Yellow","[10]; 62 g ai/ha, scale 0 to 100",5
same,"Plant response rating (0 = no effect, 100 = complete control), Nutsedge, Yellow",[10]; 125 g ai/ha,30
same,"Plant response rating, Nutsedge, Yellow","[10]; 250 g ai/ha, scale 0-100",40
same,"Plant response rating, Nutsedge, Yellow",[10]; [18],85
CCC1=NN(C(C)(C)C)CC1C(=O)Nc1cc(C(=O)N2CCCC2)ccc1F (racemic) [Compound 341],"Plant response rating, Soybean","[1]; 62 g ai/ha, scale 0 to 100",0
same,"Plant response rating (0 = no effect, 100 = complete control), Soybean",[1]; 125 g ai/ha,20
same,"Plant response rating, Soybean","[1]; 250 g ai/ha, scale 0-100",70
same,"Plant response rating, Soybean",[1]; [18],100
same,"Plant response rating, Ragweed","[2]; 62 g ai/ha, scale 0 to 100",50
same,"Plant response rating (0 = no effect, 100 = complete control), Ragweed",[2]; 125 g ai/ha,100
same,"Plant response rating, Ragweed","[2]; 250 g ai/ha, scale 0-100",100
same,"Plant response rating, Ragweed",[2]; [18],100
same,"Plant response rating, Crabgrass, Large","[3]; 62 g ai/ha, scale 0 to 100",50
same,"Plant response rating (0 = no effect, 100 = complete control), Crabgrass, Large",[3]; 125 g ai/ha,80
same,"Plant response rating, Crabgrass, Large","[3]; 250 g ai/ha, scale 0-100",90
same,"Plant response rating, Crabgrass, Large",[3]; [18],100
same,"Plant response rating, Foxtail, Giant","[4]; 62 g ai/ha, scale 0 to 100",0
same,"Plant response rating (0 = no effect, 100 = complete control), Foxtail, Giant",[4]; 125 g ai/ha,50
same,"Plant response rating, Foxtail, Giant","[4]; 250 g ai/ha, scale 0-100",55
same,"Plant response rating, Foxtail, Giant",[4]; [18],80
same,"Plant response rating, Pigweed","[5]; 62 g ai/ha, scale 0 to 100",95
same,"Plant response rating (0 = no effect, 100 = complete control), Pigweed",[5]; 125 g ai/ha,95
same,"Plant response rating, Pigweed","[5]; 250 g ai/ha, scale 0-100",100
same,"Plant response rating, Pigweed",[5]; [18],100
same,"Plant response rating, Goosegrass","[6]; 62 g ai/ha, scale 0 to 100",70
same,"Plant response rating (0 = no effect, 100 = complete control), Goosegrass",[6]; 125 g ai/ha,85
same,"Plant response rating, Goosegrass","[6]; 250 g ai/ha, scale 0-100",85
same,"Plant response rating, Goosegrass",[6]; [18],90
same,Barnyardgrass plant response rating,[7]; [14],30
same,Barnyardgrass plant response rating,[7]; [17],30
same,Barnyardgrass plant response rating,[7]; [15],50
same,"Plant response rating, Barnyardgrass",[7]; [16],60
same,Ducksalad plant response rating,"[8]; 62 g ai/ha, scale 0 to 100",20
same,Ducksalad plant response rating,[8]; [17],50
same,Ducksalad plant response rating,[8]; [15],60
same,"Plant response rating, Ducksalad",[8]; [16],60
same,"Plant response rating, Velvetleaf","[9]; 62 g ai/ha, scale 0 to 100",30
same,"Plant response rating (0 = no effect, 100 = complete control), Velvetleaf",[9]; 125 g ai/ha,60
same,"Plant response rating, Velvetleaf","[9]; 250 g ai/ha, scale 0-100",100
same,"Plant response rating, Velvetleaf",[9]; [18],100
same,"Plant response rating, Nutsedge, Yellow","[10]; 62 g ai/ha, scale 0 to 100",0
same,"Plant response rating (0 = no effect, 100 = complete control), Nutsedge, Yellow",[10]; 125 g ai/ha,0
same,"Plant response rating, Nutsedge, Yellow","[10]; 250 g ai/ha, scale 0-100",30
same,"Plant response rating, Nutsedge, Yellow",[10]; [18],60

# From patent publication US20060069132A1, “Azolecarboxamide herbicides” (priority 2004, published 2006)
